Measurements reported in PubChem BioAssay (NCI).
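Step 1: Grow cells in 96-well plates. Step 2: Expose to compound for 48 hours at 5 concentrations. Step 3: Interpolate endpoints linearly; if unreached, use highest concentration. GI50 = concentration required for 50% inhibition of growth. TGI is the concentration that stops growth completely.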

Test system: IGROV1 ovarian
Assay: NCI anticancer screen, dose series, 48 h

| SMILES | GI50 [µM] | TGI [µM] |
| --- | --- | --- |
| COc1cccc2c(=O)c3c(sc12)c(N1CCNCC1)nc1ccccc13 | 1.41 | 2.88 |
| COc1c(CCl)cc(-c2cc(=O)c3ccccc3s2)cc1CCl |  | > 100 |
| COc1ccc(/C=C/C(=O)C(CC2CCC2)C(=O)/C=C/c2ccc(OC)c(OC)c2)cc1OC | 2 | 5.27 |
| CCn1c(SCc2ccc(C)cc2)nnc1-c1nn(-c2ccc(Cl)cc2Cl)c(-c2ccc(Cl)cc2)c1C | 2.62 | 15.4 |
| CN(CCC#N)c1ccc(/C=C(\C#N)c2ccc(Br)cc2)cc1 | > 100 | > 100 |

Test system: HS 578T breast
Assay: NCI anticancer screen, dose series, 48 h

| SMILES | GI50 [µM] | TGI [µM] |
| --- | --- | --- |
| Nc1ccc(-c2nc3ccc(Cc4ccc5nc(-c6ccc(N)cc6)[nH]c5c4)cc3[nH]2)cc1 | 13 | 39.5 |
| CC(CO)(CO)NCCCCn1ccc2c1C(=O)c1c(c(O)c3ccccc3c1O)C2=O | 30.3 | 73.4 |
| O=S(=O)(Nc1cc(Sc2cccc3cccnc23)c(O)c2ccccc12)c1ccccc1 | 3.27 | 79.3 |
| CN(C)C(=O)[C@H](O)[C@H](Cc1ccccc1)NC(=O)c1cc2cc(Cl)ccc2[nH]1 | 27.5 | > 100 |
| CC(C)(C[C@H]1CN(S(=O)(=O)c2cccc(C(F)(F)F)c2)c2cc(-c3cc(F)cc(OC(F)F)c3)ccc2O1)C(=O)O | 4.47 | 27.8 |
| O=C(O)C1C(Br)(c2ccccc2)C1(Br)c1ccccc1 (stereo not given) |  | > 100 |
| CCSc1nc(SCC)c2cn[nH]c2n1 | 10.7 | 48.6 |
| ClCC[N+]12CC[N+](CCCl)(CC1)C2 |  | > 100 |
| COc1ccc(CCN2COc3c([C@@H](C)CCC=C(C)C)ccc(C)c3C2)cc1OC | 3.94 | 17.3 |
| COc1cc(C(=O)c2cc(C)c3[nH]c4ccc(C)cc4c3c2C)cc(OC)c1OC | < 0.01 | > 100 |
| COc1cc(/C=C/c2cc(/C=C/c3ccc(O)c(OC)c3)n(C(=O)Nc3ccc(C)cc3C)n2)ccc1O | 0.295 | > 100 |
| C=C1C(=O)OC2/C=C(\COC(C)=O)CCC(OC(C)=O)C3=CC(OC3=O)C12 (stereo not given) |  | 52.8 |
| Cc1ccc2[nH]c(O)c(N=Nc3ccc(S(N)(=O)=O)cc3)c2c1 | 8.24 | > 25 |
| C/C(N=NC(=S)N(C)C)=C1\C=CC=CN1O |  | > 100 |
| Cn1c(=O)c(Cc2ccccc2F)cc2cnc(NC3CCOCC3)nc21 | > 25 | > 25 |
| CC1(C)[C@@H](OC(N)=O)[C@H]2O[C@H]2[C@]2(C=O)[C@H]3CC[C@]4(C)[C@@H](c5ccc(=O)oc5)[C@@H](Cl)C[C@]4(O)C3=CC[C@@H]12 | 0.00409 | 0.0192 |
| CCCCON(OC(=O)c1ccc2ccc3cccc4ccc1c2c34)C(C)=O | 18.8 | 66.6 |
| Cc1[nH]c2ccccc2c(=O)c1CC=C(Cl)Cl | 24.6 | > 100 |
| C1CCC([PH+](C2CCCCC2)C2CCCCC2[PH+](C2CCCCC2)C2CCCCC2)CC1.O=C(C1[CH-]CCCC1)C1CCCC[N-]1.[Au] (stereo not given) | 0.225 | 1.56 |
| Clc1ccc(C=Nc2ccc3c(c2)Cc2ccccc2-3)c(Cl)c1 |  | > 100 |
| COc1ccc(/C=C/c2cc(OC)cc(=O)o2)cc1 |  | > 100 |
| O=C(/C=C\c1ccc(NCc2ccc(C(=O)O)cc2)cc1)CCl | 15.7 | 45.6 |
| O=C1CSC(c2ccc(Cl)cc2Cl)N1c1ccc(F)cc1 (stereo not given) | 16.8 | 39.9 |
| CC(C)C[C@H](NC(=O)/C=C/Cn1ccc2ccccc2c1=O)B(O)O | 5.03 | > 100 |
| COc1cccc2c(=O)c3c(sc12)c(N1CCNCC1)nc1ccccc13 | 1.7 | 3.71 |
| COc1c(CCl)cc(-c2cc(=O)c3ccccc3s2)cc1CCl |  | 59.6 |
| COc1ccc(/C=C/C(=O)C(CC2CCC2)C(=O)/C=C/c2ccc(OC)c(OC)c2)cc1OC | 3.19 | > 100 |
| CCn1c(SCc2ccc(C)cc2)nnc1-c1nn(-c2ccc(Cl)cc2Cl)c(-c2ccc(Cl)cc2)c1C | 3.3 | 18.4 |
| CN(CCC#N)c1ccc(/C=C(\C#N)c2ccc(Br)cc2)cc1 | > 100 | > 100 |
